Results published in patent US8304238B2, “Cell culture medium and immobilized preparation of cell adhesion protein or peptide” (Nat'l Institute for Environmental Studies, priority 2003, dated 2012).
Where no end group is shown, it is not given here.

Tests used:
[1] = tested on: alveolar type II epithelial cells (T2 cells); test: Inhibition by free cell adhesion peptides of T2 cell adhesion to coated cell adhesion proteins FN, Col I, LN, VN; format: cell-based; conditions: free peptide 0.25 mg/ml; serum-free, 1 day
[2] = tested on: alveolar type II epithelial cells (T2 cells); test: Time course of cell adhesion/spreading of T2 cells on immobilized cell adhesion peptide substrates; format: cell-based; conditions: 24-hour culture
Protocol: Culture was conducted by using the cell adhesion peptides immobilized on a well and T2 cells, for 1-24 hours according to the method in Example 8.
As cell adhesion peptides, AG73 was used in B, E and M, FIB-1 was used in C, L and O, A3G72 was used in F, A4G82 was used in G and N, A5G71 was used in H, A5G77 was used in I, hA3G75 was used in J, and hA3G83 was used in K; FN was used as a standard substance in A and D.

[3] = tested on: alveolar type II epithelial cells (T2 cells); test: Static and forced stretching culture of T2 cells on MMAC-coated silicone wells with immobilized proteins or peptides; format: cell-based
Protocol: A silicone well coated with MMAC was obtained by pouring 0.5 ml of ethanol solution of 50 μg/ml of MMAC (ISP, International Specialty Products, USA) into a silicone well with a groove of 20 mm×20 mm×10 mm, absorbing excess solution, and conducting air-drying.
Into the silicone wells coated by the method described in Example 1, 10 μg/ml of cell adhesion protein solution of fibronectin (FN), laminin-1 (LN), dissolved in 0.1 M triethanolamine buffer solution of pH 8.8, or 0.25 mg/ml of cell adhesion peptide solution of FIB-1, AG73 was poured respectively, and the reaction was conducted for at least several hours at 37° C. to bind and immobilize these proteins or peptides having cell adhesion activity (see Example 6 described later for particulars of immobilization). Subsequently, alveolar type II epithelial cell (T2 cells) suspension was poured, 5×10^4/cm^2 per unit area, and the culture was started in a CO2 culture apparatus.
T2 cells, 2×10^5/cm^2 per unit area, were seeded on the silicone well wherein the cell adhesion proteins or peptides were immobilized, which had been prepared in an almost same manner as that of Example 2, and static culture was conducted for 1 day. After confirming that the seeded cells confluently spread all over the culture face, horizontal cell stretching was forcibly started at the stretching degree of twenty five percents and at the frequency of 15 times per minute, by using cell culture stretching apparatus (Scholar Tec), and the culture was continued one more day. After the culture was finished, photographs of cell adhesion state were taken with a phase contrast microscope (FIG. 2, top 4 rows).
T2 cells, 5×10^4/cm^2 per unit area, were seeded on the silicone well wherein the cell adhesion proteins or peptides were immobilized, which had been prepared in an almost same manner as that of Example 2, and static culture was conducted for 3 days. T2 cells grew in a manner similar to that shown in FIG. 1, 3d (results are not shown because they are overlapping). Then, the cells were subjected to the same stimuli of forced stretching as in Example 1, and the culture was continued one more day. After the culture was finished, photographs of cell adhesion state were taken with a phase contrast microscope (FIG. 2, middle 4 rows) (FN, 3dC-1dS, LN, 3dC-1dS, FIB-1, 3dC-1dS, and AG-73, 3dC-1dS).
Forced stretching culture was conducted for 3 days in an almost same manner as stretching culture of Example 4. After the culture was finished, photographs of cell adhesion state were taken with a phase contrast microscope (FIG. 2, bottom 4 rows) (FN, 3dC-3dS, LN, 3dC-3dS, FIB-1, 3dC-3dS, and AG-73, 3dC-3dS).

[4] = tested on: alveolar type II epithelial cells (T2 cells); conditions: known, usual requirement; cited from earlier work
[5] = tested on: alveolar type II epithelial cells (T2 cells); test: Inhibition of T2 cell adhesion by free peptide different from the immobilized peptide substrate; format: cell-based
Summary of the method: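 T2 cells cultured on immobilised peptide substrate, with a free peptide differing from the immobilised one added to the medium. Adhesion inhibition read as competition for syndecan binding.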

[6] = tested on: alveolar type II epithelial cells (T2 cells); test: Binding strength (affinity) of immobilized LN peptides to T2 cells relative to immobilized FIB-1 (mixed immobilization, free FIB-1 competition); format: cell-based; parameters: key to Binding strength to T2 cells, Comprehensive evaluation: AA: extremely strongly binding/adhering; A: strongly binding/adhering; B: intermediately binding/adhering (as the same degree as FIB-1 peptide); C: more weakly binding/adhering than FIB-1 peptide
Summary of the method: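 MMAC-coated wells coated with FIB-1 (0.25 mg/ml) mixed with LN peptide (e.g. AG73) at varied ratios; free FIB-1 competition. T2 cells cultured serum-free 1 day; adhesion expressed relative to immobilized FIB-1 (100%). Relative binding strength derived from mixing ratio at transitional midpoint.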

[7] = tested on: alveolar type II epithelial cells (T2 cells); test: Inhibition of T2 cell adhesion to immobilized cell adhesion peptide substrates by heparin treatment; format: cell-based; conditions: 24-hour culture
Protocol: 100 μg/ml of heparin solution was poured into a well prepared according to the method in Example 6, wherein the cell adhesion peptides were immobilized, and the incubation was conducted for 2 hours. The heparin solution was removed after heparin bound to the immobilized cell adhesion peptides, and T2 cell suspension was seeded on the well.
It is theoretically shown that after the cell adhesion peptides first bind to heparin and are covered with heparin, the cell adhesion receptors having heparin-like sugar chain (heparan sulfate) present on the cell surface, in other words, syndecan, a protein that belongs to heparan sulfate proteoglycan, cannot bind to the cell adhesion peptides by using the sugar chain part of the heparan sulfate, thereby the cell adhesion is inhibited.

For YAVTGRGDSPAS [reference compound], the “Inhibition of adhesion of T2 cells to FN, Col I, LN and VN by free peptide” value [1] was “does not exhibit inhibitory effect”, the “Cell adhesion/spreading on immobilized peptide” value [2] was “almost all cells had finished spreading” and the “Reorientation of T2 cells under forced stretching” value ([3]; 1 day static, 1 day stretching (1dC-1dS), 25 percent, 15 times per minute) was “spread in an elongated shape to a direction perpendicular to the direction of forced stretching”. For the same sequence, the “Change of type II epithelial cells into a shape like type I epithelial cells” value ([3]; 3 days static, 3 days stretching (3dC-3dS)) was “less observed”, the “Concentration of free FIB-1 peptide required to inhibit adhesion to FN” value [4] was ≥ 1 mg/mL and the “Inhibition by free peptide of T2 cell adhesion to immobilized AG73” value ([5]; AG73 (etc.) immobilized) was “no inhibition occurred”. For the same sequence, the “Inhibition by free peptide of T2 cell adhesion to immobilized AG73 and A4G82 peptides” value ([5]; AG73 and A4G82 immobilized) was “could not inhibit”, the “Inhibition by free peptide of T2 cell adhesion to immobilized AG81.2 and AG73T” value ([5]; AG81.2 and AG73T immobilized) was “inhibited the adhesion” and the “Inhibition by free peptide of T2 cell adhesion to immobilized FIB-1” value ([5]; FIB-1 immobilized) was “competitively inhibited”. The “Binding strength to T2 cells, Comprehensive evaluation” value ([6]; classification relative to FIB-1 peptide) was “B”, the “Binding strength to T2 cells, Ratio to FIB-1” value ([6]; inverse of mixing ratio at transitional midpoint, FIB-1 0.25 mg/ml, MMAC-coated well) was “(1)” and the “Inhibition of cell adhesion to immobilized peptide by heparin treatment” value ([7]; 100 μg/ml heparin 2 hours) was “no inhibition”. For the same sequence, the “Inhibition degree of cell adhesion, Heparin” value ([7]; immobilized peptide treated with 100 μg/ml heparin 2 hours) was “No”.
